Results on 25 compounds are retold here after patent publication US20230146675A1, “PYRIMIDO[5,4-d]PYRIMIDINE DERIVATIVES AS ENT INHIBITORS FOR THE TREATMENT OF CANCERS, AND COMBINATION THEREOF WITH ADENOSINE RECEPTOR ANTAGONISTS” (ITEOS BELGIUM SA, priority 2020, published 2023).

The IC50 is the concentration that inhibits the measured activity by half. A low value points to inhibition by little substance.

This experiment concerns the target T1, human ENT1 (Homo sapiens, UniProt Q99808).
T1 sequence (Q99808 1-456): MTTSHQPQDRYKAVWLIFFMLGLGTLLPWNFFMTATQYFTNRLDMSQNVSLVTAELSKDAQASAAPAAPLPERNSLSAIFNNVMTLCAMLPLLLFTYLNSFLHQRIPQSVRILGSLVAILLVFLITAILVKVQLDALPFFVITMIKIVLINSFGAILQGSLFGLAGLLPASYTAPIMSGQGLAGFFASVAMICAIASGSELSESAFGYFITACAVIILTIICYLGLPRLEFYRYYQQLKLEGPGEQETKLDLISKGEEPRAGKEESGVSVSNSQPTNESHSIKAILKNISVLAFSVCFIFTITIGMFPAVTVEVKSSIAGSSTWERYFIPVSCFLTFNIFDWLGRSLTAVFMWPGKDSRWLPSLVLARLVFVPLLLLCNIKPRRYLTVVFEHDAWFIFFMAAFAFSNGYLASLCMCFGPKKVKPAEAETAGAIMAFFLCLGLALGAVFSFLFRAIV
The experiment in a line: ENT1 binding assay (competition with Sahenta-DY647 on JAR cells). On the set-up: JAR cells expressing ENT1 were bought from ATCC; host or cells: JAR cells. The conditions noted are these: binned IC50. A digest of the protocol: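 JAR cells were incubated with test compounds and the fluorescent ligand Sahenta-DY647 in competition. Plates were washed twice by centrifugation (4 min, 400 rcf, 4 °C). Binding potency was derived from the final fluorescence.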
`COCCN(CCOC)c1nc(N2CCC(OC)CC2)c2nc(N(CCOC)CCOC)nc(NCc3cccc(OC)c3)c2n1` [Compound 48, N4-(3-methoxybenzyl)-N2,N2,N6,N6-tetrakis(2-methoxyethyl)-8-(4-methoxypiperidin-1-yl)pyrimido[5,4-d]pyrimidine-2,4,6-triamine]: the IC50 is < 100 nM.

`COCCN(CCOC)c1nc(N2CCC(OC)CC2)c2nc(N(CCOC)CCOC)nc(NCc3cccnc3)c2n1` [Compound 62, N2,N2,N6,N6-tetrakis(2-methoxyethyl)-8-(4-methoxypiperidin-1-yl)-N4-(pyridin-3-ylmethyl)pyrimido[5,4-d]pyrimidine-2,4,6-triamine]: the IC50 was in the range of 500 to 1000 nM.

With `COCCCN(CCCOC)c1nc(N2CCC(OC)CC2)c2nc(N(CCCO)CCCO)nc(N3CCC(OC)CC3)c2n1` [Compound 330, 3,3′-((6-(bis(3-methoxypropyl)amino)-4,8-bis(4-methoxypiperidin-1-yl)pyrimido[5,4-d]pyrimidin-2-yl)azanediyl)bis(propan-1-ol)], the IC50 is 100 to 500 nM. Under `COCCN(CCOC)c1nc(N2CCC(OC)CC2)c2nc(N(CCOC)CCOC)nc(NCc3ccc(C(F)(F)F)nc3)c2n1` [Compound 53, N2,N2,N6,N6-tetrakis(2-methoxyethyl)-8-(4-methoxypiperidin-1-yl)-N4-((6-(trifluoromethyl)pyridin-3-yl)methyl)pyrimido[5,4-d]pyrimidine-2,4,6-triamine] stands 500 to 1000 nM. Under `COC1CCN(c2nc(N(CCO)CCO)nc3c(N4CCN(C)C(=O)C4)nc(N(CCO)CCO)nc23)CC1` [Compound 321, 4-(2,6-bis(bis(2-hydroxyethyl)amino)-8-(4-methoxypiperidin-1-yl)pyrimido[5,4-d]pyrimidin-4-yl)-1-methylpiperazin-2-one] stands 500 to 1000 nM. Under `COCCN(CCOC)c1nc(N2CCC(OC)CC2)c2nc(N(CCOC)CCOC)nc(NCc3ccc(F)c(Cl)c3)c2n1` [Compound 138, N4-(3-chloro-4-fluorobenzyl)-N2,N2,N6,N6-tetrakis(2-methoxyethyl)-8-(4-methoxypiperidin-1-yl)pyrimido[5,4-d]pyrimidine-2,4,6-triamine] stands < 100 nM. For the compound `COCCN(CCOC)c1nc(N2CCC(OC)CC2)c2nc(N(CCOC)CCOC)nc(OCc3ccc(F)c(OC)c3)c2n1` [Compound 157, 4-((4-fluoro-3-methoxybenzyl)oxy)-N2,N2,N6,N6-tetrakis(2-methoxyethyl)-8-(4-methoxypiperidin-1-yl)pyrimido[5,4-d]pyrimidine-2,6-diamine], the IC50 was < 100 nM. `COCCN(CCOC)c1nc(N2CCN(C)C(=O)C2)c2nc(N(CCOC)CCOC)nc(N(C)Cc3cccc(Cl)c3)c2n1` [Compound 234, 4-(2,6-bis(bis(2-methoxyethyl)amino)-8-((3-chlorobenzyl)(methyl)amino)pyrimido[5,4-d]pyrimidin-4-yl)-1-methylpiperazin-2-one]: the IC50 is < 100 nM.

Turning to `COCCN(CCO)c1nc(N2CCN(C)C(=O)C2)c2nc(N(CCOC)CCOC)nc(N3CCC(OC)CC3)c2n1` [Compound 275, 4-(6-(bis(2-methoxyethyl)amino)-2-((2-hydroxyethyl)(2-methoxyethyl)amino)-8-(4-methoxypiperidin-1-yl)pyrimido[5,4-d]pyrimidin-4-yl)-1-methylpiperazin-2-one], the IC50 is < 100 nM. Under `COCCN(CCOC)c1nc(N2CCC(OC)CC2)c2nc(N(CCO)CCO)nc(N3CC(=O)N(C)C(=O)C3)c2n1` [Compound 307, 4-(2-(bis(2-hydroxyethyl)amino)-6-(bis(2-methoxyethyl)amino)-8-(4-methoxypiperidin-1-yl)pyrimido[5,4-d]pyrimidin-4-yl)-1-methylpiperazine-2,6-dione] stands < 100 nM; under `COCCN(CCOC)c1nc(N2CCc3c(ncn3C)C2)c2nc(N(CCOC)CCOC)nc(N3CCN(C)C(=O)C3)c2n1` [Compound 253, 4-(2,6-bis(bis(2-methoxyethyl)amino)-8-(1-methyl-1,4,6,7-tetrahydro-5H-imidazo[4,5-c]pyridin-5-yl)pyrimido[5,4-d]pyrimidin-4-yl)-1-methylpiperazin-2-one], 100 to 500 nM. The same measure for `COCCN(CCOC)c1nc(N2CC(=O)N(C)C(=O)C2)c2nc(N(CCO)CCO)nc(N3CCC(OC)CC3)c2n1` [Compound 308, 4-(6-(bis(2-hydroxyethyl)amino)-2-(bis(2-methoxyethyl)amino)-8-(4-methoxypiperidin-1-yl)pyrimido[5,4-d]pyrimidin-4-yl)-1-methylpiperazine-2,6-dione]: < 100 nM; for `COCCN(CCOC)c1nc(N2CCN(C)C(=O)C2)c2nc(N3CCNC(=O)C3)nc(N3CCC(OC)CC3)c2n1` [Compound 278, 4-(2-(bis(2-methoxyethyl)amino)-8-(4-methoxypiperidin-1-yl)-6-(3-oxopiperazin-1-yl)pyrimido[5,4-d]pyrimidin-4-yl)-1-methylpiperazin-2-one]: 100 to 500 nM. Under `COCCN(CCOC)c1nc(N2CCN(C)C(=O)C2)c2nc(N(CCO)CCO)nc(N3CCC(OC)CC3)c2n1` [Compound 271, 4-(6-(bis(2-hydroxyethyl)amino)-2-(bis(2-methoxyethyl)amino)-8-(4-methoxypiperidin-1-yl)pyrimido[5,4-d]pyrimidin-4-yl)-1-methylpiperazin-2-one] stands 500 to 1000 nM.

On to `COCCN(CCOC)c1nc(N2CCC(OC)CC2)c2nc(N(CCOC)CCOC)nc(N(C)CC(C)C)c2n1` [Compound 168, N4-isobutyl-N2,N2,N6,N6-tetrakis(2-methoxyethyl)-8-(4-methoxypiperidin-1-yl)-N4-methylpyrimido[5,4-d]pyrimidine-2,4,6-triamine], for which the IC50 is < 100 nM. The same measure for `CCCNc1nc(N(CCOC)CCOC)nc2c(N3CCN(c4ncn(C)n4)CC3)nc(N(CCOC)CCOC)nc12` [Compound 218, N2,N2,N6,N6-tetrakis(2-methoxyethyl)-8-(4-(1-methyl-1H-1,2,4-triazol-3-yl)piperazin-1-yl)-N4-propylpyrimido[5,4-d]pyrimidine-2,4,6-triamine]: 100 to 500 nM.

Take `COCCN(CCOC)c1nc(N2CCC(OC)CC2)c2nc(N(CCOC)CCOC)nc(OCc3cc(OC)cc(OC)c3)c2n1` [Compound 152, 4-((3,5-dimethoxybenzyl)oxy)-N2,N2,N6,N6-tetrakis(2-methoxyethyl)-8-(4-methoxypiperidin-1-yl)pyrimido[5,4-d]pyrimidine-2,6-diamine]: the IC50 was < 100 nM. The same measure for `COCCN(CCOC)c1nc(N2CCN(C)C(=O)C2)c2nc(N(CCOC)CCOC)nc(NCc3ccc(F)c(C#N)c3)c2n1` [Compound 211, 5-(((2,6-bis(bis(2-methoxyethyl)amino)-8-(4-methyl-3-oxopiperazin-1-yl)pyrimido[5,4-d]pyrimidin-4-yl)amino)methyl)-2-fluorobenzonitrile]: < 100 nM; for `CCCN(C)c1nc(N(CCOC)CCOC)nc2c(N3CC(O)(C(F)(F)F)C3)nc(N(CCOC)CCOC)nc12` [Compound 13, 1-(2,6-bis(bis(2-methoxyethyl)amino)-8-(methyl(propyl)amino)pyrimido[5,4-d]pyrimidin-4-yl)-3-(trifluoromethyl)azetidin-3-ol]: < 100 nM. Under `COCCN(CCOC)c1nc(N2CCOC(C)C2)c2nc(N(CCOC)CCOC)nc(N3CCC(OC)CC3)c2n1` (stereo not shown) [Compound 113, N2,N2,N6,N6-tetrakis(2-methoxyethyl)-4-(4-methoxypiperidin-1-yl)-8-(2-methylmorpholino)pyrimido[5,4-d]pyrimidine-2,6-diamine] stands 100 to 500 nM. For the compound `COCCN(CCOC)c1nc(N2CCC(OC)CC2)c2nc(N(CCOC)CCOC)nc(NCc3ccc(Cl)c(C#N)c3)c2n1` [Compound 150, 5-(((2,6-bis(bis(2-methoxyethyl)amino)-8-(4-methoxypiperidin-1-yl)pyrimido[5,4-d]pyrimidin-4-yl)amino)methyl)-2-chlorobenzonitrile], the IC50 was < 100 nM. The same measure for `COCCN(CCOC)c1nc(N2CCN(c3nnc(C)o3)CC2)c2nc(N(CCOC)CCOC)nc(N3CCN(c4nnc(C)o4)CC3)c2n1` [Compound 130, N2,N2,N6,N6-tetrakis(2-methoxyethyl)-4,8-bis(4-(5-methyl-1,3,4-oxadiazol-2-yl)piperazin-1-yl)pyrimido[5,4-d]pyrimidine-2,6-diamine]: 500 to 1000 nM; for `COCCN(CCOC)c1nc(N2CCN(c3ncn(C)n3)CC2)c2nc(N(CCOC)CCOC)nc(NCc3cccc(Cl)c3)c2n1` [Compound 221, N4-(3-chlorobenzyl)-N2,N2,N6,N6-tetrakis(2-methoxyethyl)-8-(4-(1-methyl-1H-1,2,4-triazol-3-yl)piperazin-1-yl)pyrimido[5,4-d]pyrimidine-2,4,6-triamine]: < 100 nM. In turn, `COCCN(CCOC)c1nc(N2CCC(OC)CC2)c2nc(N(CCOC)CCOC)nc(NCC(C)C)c2n1` [Compound 127, N4-isobutyl-N2,N2,N6,N6-tetrakis(2-methoxyethyl)-8-(4-methoxypiperidin-1-yl)pyrimido[5,4-d]pyrimidine-2,4,6-triamine] yielded an IC50 of 100 to 500 nM.

Regarding `COCCN(CCOC)c1nc(N2CCC(OC)CC2)c2nc(N(CCOC)Cc3ccc(OC)c(OC)c3OC)nc(N3CCC(OC)CC3)c2n1` [Compound 183, N2,N2,N6-tris(2-methoxyethyl)-4,8-bis(4-methoxypiperidin-1-yl)-N6-(2,3,4-trimethoxybenzyl)pyrimido[5,4-d]pyrimidine-2,6-diamine], the 50% inhibitory concentration (IC50) was < 100 nM.
